Tests used:
GLP-1R = GLP-1R (Homo sapiens (Human), UniProt P43220); test: GLP-1R activation: cAMP increase in CHO cells stably expressing GLP-1R; type: cell-based; conditions: cAMP increase, 10 point dose response, 30 minutes incubation at 37° C., read-out: EC50
Experimental: GLP-1R activation by a compound of the present disclosure was quantified by measuring cAMP increase in CHO cells stably expressing GLP-1R (MultiSpan product #C1267-1a). […] The cells were then incubated overnight at 37° C., 5% CO2. […] 1% BSA (Rockland Immunochemicals product #BSA-1000)). Following the medium change, the cells were incubated for 1 hour at 37° C., 5% CO2. The tested GLP-1 compound was added to the cells in a 10 point dose response followed by a 30 minutes incubation at 37° C., 5% CO2. cAMP concentration increase was then detected using Cisbio's cAMP Gs Dynamic Kit (product #62AM4PEC) according to the manufacturer's protocol. The response was plotted against the log of the agonist concentration and fitted to a sigmoidal equation to determine the EC50.

[1] = Microsomal stability (liver microsomal assay, mixed cofactors); predicted hepatic clearance; type: in vitro ADME; conditions: liver microsomes 1.0 mg protein/mL (+UDPGA +NADPH), 1 μM analyte, 37° C.; scaled with human liver weight and hepatic blood flow 1.3 L/hr/kg
Experimental: Metabolic stability of compounds was assessed using human or rat liver microsomal assays (Corning). In these assays, 10 nL of each analyte at a concentration of 1 mM in 100% DMSO was dispensed into a well of a polypropylene plates using the Echo 550 acoustic liquid dispenser (Labcyte®). Each plate contained 384 wells with a single analyte in each well.
A solution of human (Corning® Gentest™ Human Mixed Pooled Microsomes or rat (Corning® Gentest™ Rat [Sprague-Dawley] Pooled Liver Microsomes) liver microsomes at 2 mg/ml in 100 mM K2HPO4/KH2PO4 at pH 7. 4 was combined with alamethicin from Trichoderma viride (Sigma-Aldrich) 0.0225 mg/ml. The mixture was incubated on ice for 15 minutes. 5 μL of this mixture was added to individual wells following a 15 minute incubation at room temperature and supplemented with 5 μL NADPH Regenerating Solution of cofactors (Corning® Gentest™ UGT Reaction Mix) containing 100 mM K2HPO4/KH2PO4 at pH 7.4, 2.6 mM NADP+, 6.6 mM glucose-6-phosphate, 6.6 mM MgCl2, 0.8 U/mL glucose-6-phosphate dehydrogenase, 0.1 mM sodium citrate, and 6.8 mM uridine diphosphate-glucuronic acid. The final concentration of each analyte compound at the beginning of the reaction was 1 μM. The reactions were incubated at 37° C. and samples were collected at time points of 0, 5, 15, 30, 40, 50, 60, and 70 minutes for further analysis. Background data were collected using reactions without analyte compounds.
Upon collection of the sample time points, samples were quenched with 30 μL of a solution of 72% acetonitrile, 8% methanol, 0.1% formic acid, 19.9% water, and internal standard (IS). Reaction plates were spun in a centrifuge at speed of 4,000 rcf for 30 minutes at 4° C., following a dilution of the 10 μL quenched reaction into 40 μL de-ionized water, yielding assay plates.
Assay plates were analyzed using solid-state extraction coupled with quadrupole time-of-flight mass spectrometer, using Agilent QToF 6530 RapidFire 360 system, with C4 type A solid state cartridges. Analysis was performed in either positive or negative ionization modes. Mobile phases contained 0.1% formic acid in water for loading analytes onto solid state extraction cartridges and 0.1% formic acid in acetonitrile for elution into a mass spectrometer in positive ionization mode, or 0.1% acetic acid in water for loading and 0.1% acetic acid in acetonitrile for extraction in negative ionization mode. Peak-area ratios of integrated counts for individual compounds to IS were plotted as semi-logarithmic chart of log vs time. The initial linear portion of decay was fitted to a linear regression equation to derive the half-time of analyte decay.
Pharmacological parameters for an analyte compound metabolism were calculated using the following equations: […]
wherein concentration refers to the protein concentration (mg/ml) in the reaction.
This scales the in vitro intrinsic clearance up to the value that would be predicted for the entire mass of liver tissue (but with no restriction by blood flow). The value depends upon the size of the liver (species-dependent) and the yield of microsomal protein as appropriate (assumed to be species-independent).
Hepatic clearance will depend upon the inter-relationship of intrinsic clearance and hepatic blood flow and was predicted from in vitro data using a variety of approaches.
The hepatic extraction is reported as the predicted clearance expressed as a proportion of hepatic blood flow.

GLP-1R, sequence (P43220 24-463): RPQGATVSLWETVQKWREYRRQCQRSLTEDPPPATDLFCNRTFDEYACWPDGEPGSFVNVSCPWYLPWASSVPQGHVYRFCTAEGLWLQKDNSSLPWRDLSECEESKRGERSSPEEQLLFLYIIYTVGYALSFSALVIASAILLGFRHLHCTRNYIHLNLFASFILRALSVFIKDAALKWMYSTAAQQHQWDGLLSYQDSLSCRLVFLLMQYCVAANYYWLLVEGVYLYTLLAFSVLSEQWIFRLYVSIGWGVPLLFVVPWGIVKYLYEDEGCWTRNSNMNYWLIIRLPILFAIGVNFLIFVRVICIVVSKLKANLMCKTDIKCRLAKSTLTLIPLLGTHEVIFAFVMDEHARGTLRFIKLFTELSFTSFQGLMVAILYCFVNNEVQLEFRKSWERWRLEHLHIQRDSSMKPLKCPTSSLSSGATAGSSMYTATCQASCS

SMILES	EC50 (GLP-1R)	Predicted Hepatic Clearance (Pred. Cl.) [1]
COCCn1c(Cc2c(F)cc(-c3cccc4c3OC(C)(c3ccc(C#N)cc3F)O4)cc2F)nc2ccc(C(=O)O)cc21 (single isomer, unassigned) [Example 99, 2-(4-(2-(4-cyano-2-fluorophenyl)-2-methylbenzo[d][1, 3]dioxol-4-yl)-2,6-difluorobenzyl)-1-(2-methoxyethyl)-1H-benzo[d]imidazole-6-carboxylic acid]	2.4 nM	11.3 mL/min/kg
CC1(c2ccc(Cl)cc2F)Oc2cccc(-c3cc(F)c(Cc4nc5c(F)cc(C(=O)O)cc5n4CC4(CC#N)CC4)c(F)c3)c2O1 (single isomer, unassigned) [Example 105, 2-(4-(2-(4-chloro-2-fluorophenyl)-2-methylbenzo[d][1, 3]dioxol-4-yl)-2,6-difluorobenzyl)-1-((1-(cyanomethyl)cyclopropyl)methyl)-4-fluoro-1H-benzo[d]imidazole-6-carboxylic acid]	2.6 nM	1.83 mL/min/kg
CC1(c2ccc(Cl)cc2F)Oc2cccc(-c3cc(F)c(Cc4nc5c(F)cc(C(=O)O)cc5n4CC4(CC#N)CC4)c(F)c3)c2O1 (single isomer, unassigned) [Example 106, 2-(4-(2-(4-chloro-2-fluorophenyl)-2-methylbenzo[d][1, 3]dioxol-4-yl)-2,6-difluorobenzyl)-1-((1-(cyanomethyl)cyclopropyl)methyl)-4-fluoro-1H-benzo[d]imidazole-6-carboxylic acid]	0.64 nM	15.2 mL/min/kg
CC1(c2ccc(Cl)cc2F)Oc2cccc(-c3cc(F)c(Cc4nc5ccc(C(=O)O)cc5n4CC4(CC#N)CC4)c(F)c3)c2O1 (centres unmarked) [Example 1, 2-(4-(2-(4-chloro-2-fluorophenyl)-2-methylbenzo[d][1, 3]dioxol-4-yl)-2,6-difluorobenzyl)-1-((1-(cyanomethyl)cyclo-propyl)methyl)-1H-benzo[d]imidazole-6-carboxylic acid]	0.51 nM	<1.83 mL/min/kg
CC1(c2ccc(Cl)cc2F)Oc2cccc(-c3cc(F)c(Cc4nc5ccc(C(=O)O)c(F)c5n4C[C@@H]4CCO4)c(F)c3)c2O1 (stereo partly drawn) [Example 2, 2-(4-(2-(4-chloro-2-fluorophenyl)-2-methylbenzo[d][1, 3]dioxol-4-yl)-2,6-difluorobenzyl)-7-fluoro-1-(((S)-oxetan-2-yl)methyl)-1H-benzo[d]imidazole-6-carboxylic acid]	0.17 nM	<1.83 mL/min/kg
COCCn1c(Cc2ccc(-c3cccc4c3OC(c3ccc(C#N)cc3F)O4)cc2F)nc2ccc(C(=O)O)cc21 (centres unmarked) [Example 4, 2-(4-(2-(4-cyano-2-fluorophenyl)benzo[d][1, 3]dioxol-4-yl)-2-fluorobenzyl)-1-(2-methoxyethyl)-1H-benzo[d]imidazole-6-carboxylic acid]	103 nM	4.17 mL/min/kg
COCCn1c(Cc2c(F)cc(-c3cccc4c3OC(c3ccc(C#N)cc3F)O4)cc2F)nc2ccc(C(=O)O)cc21 (centres unmarked) [Example 5, 2-(4-(2-(4-cyano-2-fluorophenyl)benzo[d][1, 3]dioxol-4-yl)-2,6-difluorobenzyl)-1-(2-methoxyethyl)-1H-benzo[d]imidazole-6-carboxylic acid]	161 nM	<1.83 mL/min/kg
COCCn1c(Cc2ccc(-c3cccc4c3OC(c3ccc(C#N)cc3)O4)cc2F)nc2ccc(C(=O)O)cc21 (centres unmarked) [Example 6, 2-(4-(2-(4-cyanophenyl)benzo[d][1, 3]dioxol-4-yl)-2-fluorobenzyl)-1-(2-methoxyethyl)-1H-benzo[d]imidazole-6-carboxylic acid]	219 nM	4.83 mL/min/kg
COCCn1c(Cc2ccc(-c3cccc4c3OC(c3ccccc3)C4)cc2F)nc2ccc(C(=O)O)cc21 (centres unmarked) [Example 7, 2-(2-fluoro-4-(2-phenyl-2,3-dihydrobenzofuran-7-yl)benzyl)-1-(2-methoxyethyl)-1H-benzo[d]imidazole-6-carboxylic acid]	530 nM	7.5 mL/min/kg
COCCn1c(Cc2ccc(-c3cccc4c3OC(C)(c3ccc(Cl)cc3F)O4)s2)nc2ccc(C(=O)O)cc21 (centres unmarked) [Example 8, 2-((5-(2-(4-chloro-2-fluorophenyl)-2-methylbenzo[d][1, 3]dioxol-4-yl)thiophen-2-yl)methyl)-1-(2-methoxyethyl)-1H-benzo[d]imidazole-6-carboxylic acid]	78 nM	7.83 mL/min/kg
CC1(c2ccc(Cl)cc2F)Oc2cccc(-c3cc(F)c(Cc4nc5c(F)cc(C(=O)O)cc5n4CC4(CC(N)=O)CC4)c(F)c3)c2O1 (centres unmarked) [Example 9, 1-((1-(2-amino-2-oxoethyl)cyclopro-pyl)methyl)-2-(4-(2-(4-chloro-2-fluorophenyl)-2-methylbenzo[d][1, 3]dioxol-4-yl)-2,6-difluorobenzyl)-4-fluoro-1H-benzo[d]imidazole-6-carboxylic acid]	8.6 nM	2.5 mL/min/kg
COCCn1c(Cc2c(F)cc(-c3cccc4c3OC(CCC(=O)O)(c3ccc(Cl)cc3)N4)cc2F)nc2ccc(C(=O)O)cc21 (centres unmarked) [Example 10, 2-(4-(2-(2-carboxyethyl)-2-(4-chlorophenyl)-2,3-dihydrobenzo[d]oxazol-7-yl)-2,6-difluorobenzyl)-1-(2-methoxyethyl)-1H-benzo[d]imidazole-6-carboxylic acid]	130 nM	12.7 mL/min/kg
COCCn1c(Cc2c(F)cc(-c3cccc4c3OC(C)(c3ccc(C#N)s3)O4)cc2F)nc2ccc(C(=O)O)cc21 (centres unmarked) [Example 11, 2-(4-(2-(5-cyanothiophen-2-yl)-2-methylbenzo[d][1, 3]dioxol-4-yl)-2,6-difluorobenzyl)-1-(2-methoxyethyl)-1H-benzo[d]imidazole-6-carboxylic acid]	34 nM	7.17 mL/min/kg
CC1(c2ccc(Cl)cn2)Oc2cccc(-c3cc(F)c(Cc4nc5ccc(C(=O)O)cc5n4CC4(CF)CC4)c(F)c3)c2O1 (centres unmarked) [Example 12, 2-(4-(2-(5-chloropyridin-2-yl)-2-methylbenzo[d][1, 3]dioxol-4-yl)-2,6-difluorobenzyl)-1-((1-(fluoromethyl)cyclo-propyl)methyl)-1H-benzo[d]imidazole-6-carboxylic acid]	2.4 nM	4 mL/min/kg
CC1(c2ccc(Cl)cc2F)Oc2cccc(-c3cc(F)c(Cc4nc5c(F)cc(C(=O)O)cc5n4CC4(CC#N)CC4)c(F)c3)c2O1 (centres unmarked) [Example 13, 2-(4-(2-(4-chloro-2-fluorophenyl)-2-methylbenzo[d][1, 3]dioxol-4-yl)-2,6-difluorobenzyl)-1-((1-(cyanomethyl)cyclo-propyl)methyl)-4-fluoro-1H-benzo[d]imidazole-6-carboxylic acid]	0.41 nM	<1.83 mL/min/kg
CC1(c2ccc(Cl)cn2)Oc2cccc(-c3cnc(Cc4nc5ccc(C(=O)O)cc5n4C[C@@H]4CCO4)c(F)c3)c2O1 (stereo partly drawn) [Example 14, 2-((5-(2-(5-chloropyridin-2-yl)-2-methylbenzo[d][1, 3]dioxol-4-yl)-3-fluoropyridin-2-yl)methyl)-1-(((S)-oxetan-2-yl)methyl)-1H-benzo[d]imidazole-6-carboxylic acid]	4.5 nM	2.5 mL/min/kg
